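Five concentrations, 48 hours, 96-well plates. GI50 is the concentration that inhibits growth by half.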 Activity calls are given as the source filed them. Cut-off read from the data, not from the text of the source: active = GI50 up to about 1.1 µM and inactive = higher.
Experiments:
Experiment in all cases: DTP human tumour cell line panel, 48 h
[1] = test system: HOP-92
[2] = test system: NCI-H226
[3] = test system: M14
[4] = test system: PC-3
[5] = test system: SW-620
[6] = test system: A549
[7] = test system: HT-29
[8] = test system: OVCAR-4
[9] = test system: SK-MEL-5
[10] = test system: SR
[11] = test system: SNB-19
[12] = test system: LOX IMVI
[13] = test system: CCRF-CEM
[14] = test system: NCI-H460
[15] = test system: U-251
[16] = test system: RPMI-8226
[17] = test system: 786-0
[18] = test system: HCC 2998
[19] = test system: Malme-3M
[20] = test system: SK-OV-3

| SMILES | GI50 [1] | GI50 [2] | GI50 [3] | GI50 [4] | GI50 [5] | GI50 [6] | GI50 [7] | GI50 [8] | GI50 [9] | GI50 [10] | GI50 [11] | GI50 [12] | GI50 [13] | GI50 [14] | GI50 [15] | GI50 [16] | GI50 [17] | GI50 [18] | GI50 [19] | GI50 [20] |
| --- | --- | --- | --- | --- | --- | --- | --- | --- | --- | --- | --- | --- | --- | --- | --- | --- | --- | --- | --- | --- |
| CCOC(=O)c1cn(-c2ccc([N+](=O)[O-])cc2)c(=S)n2c1nc1ccccc12 | 18.5 µM (inactive) | 37.2 µM (inactive) | 61 µM (inactive) | 13.6 µM (inactive) | 47 µM (inactive) | 36.7 µM (inactive) | 26.4 µM (inactive) | 21.6 µM (inactive) | 21.9 µM (inactive) | 39.5 µM (inactive) | 72.6 µM (inactive) | 56.5 µM (inactive) | 9.84 µM (inactive) | 51.5 µM (inactive) | 36.2 µM (inactive) | 24.6 µM (inactive) | 30.1 µM (inactive) | 23.1 µM (inactive) |  |  |
| O=C(O)CCC(NC(=O)c1ccc(Oc2nc3ccccc3nc2-c2ccccc2)cc1)C(=O)O (centres undefined) | > 100 µM (inactive) | > 100 µM (inactive) | > 100 µM (inactive) | > 100 µM (inactive) | > 100 µM (inactive) | > 100 µM (inactive) | > 100 µM (inactive) | > 100 µM (inactive) |  | > 100 µM (inactive) | > 100 µM (inactive) | > 100 µM (inactive) | > 100 µM (inactive) | > 100 µM (inactive) | > 100 µM (inactive) |  | > 100 µM (inactive) | > 100 µM (inactive) | > 100 µM (inactive) | > 100 µM (inactive) |
| COc1nc2ncc([C@@H](O)[C@H](O)CO)nc2c(=O)n1C | > 100 µM (inactive) | > 100 µM (inactive) | > 100 µM (inactive) | > 100 µM (inactive) | > 100 µM (inactive) | > 100 µM (inactive) | > 100 µM (inactive) | > 100 µM (inactive) | > 100 µM (inactive) | > 100 µM (inactive) | > 100 µM (inactive) | > 100 µM (inactive) | > 100 µM (inactive) | > 100 µM (inactive) | > 100 µM (inactive) | > 100 µM (inactive) | > 100 µM (inactive) |  | > 100 µM (inactive) | > 100 µM (inactive) |
| N#Cc1nnc2ccccc2c1N | > 100 µM (inactive) | > 100 µM (inactive) | > 100 µM (inactive) | > 100 µM (inactive) | > 100 µM (inactive) | > 100 µM (inactive) | > 100 µM (inactive) | > 100 µM (inactive) | > 100 µM (inactive) | > 100 µM (inactive) | > 100 µM (inactive) | > 100 µM (inactive) |  | > 100 µM (inactive) | > 100 µM (inactive) | > 100 µM (inactive) | > 100 µM (inactive) | > 100 µM (inactive) | > 100 µM (inactive) |  |
| COc1c(-c2ccc(F)cc2)oc2cc(O)cc(O)c2c1=O | 35.6 µM (inactive) |  | 34.8 µM (inactive) | 34 µM (inactive) | 43 µM (inactive) | 31 µM (inactive) | 22.7 µM (inactive) |  | 16.5 µM (inactive) | 28.2 µM (inactive) | 23.9 µM (inactive) | 21.8 µM (inactive) | 29.4 µM (inactive) | 21.7 µM (inactive) | 30.5 µM (inactive) | 30.4 µM (inactive) | 32.8 µM (inactive) | 14.5 µM (inactive) | 26.6 µM (inactive) | 30.5 µM (inactive) |
| COc1cc2c(cc1C)NC(=O)/C2=C\c1ccncc1 | 26.1 µM (inactive) |  | 3.98 µM (inactive) | 6.55 µM (inactive) | 4.49 µM (inactive) | 15.3 µM (inactive) | 4.92 µM (inactive) | > 100 µM (inactive) | 2.73 µM (inactive) | 2.61 µM (inactive) | 5.2 µM (inactive) |  | 2.75 µM (inactive) | 17.7 µM (inactive) | 4.39 µM (inactive) |  | 5.35 µM (inactive) | 12.3 µM (inactive) | 15.5 µM (inactive) | 3.96 µM (inactive) |
| CC1=NN(c2cccc(Cl)c2)C2(SCC(=O)N2c2nc3ccccc3s2)/C1=C\c1ccc(N(C)C)cc1 (centres undefined) | 23.7 µM (inactive) | 76 µM (inactive) | > 100 µM (inactive) | > 100 µM (inactive) | > 100 µM (inactive) |  | > 100 µM (inactive) | 93.5 µM (inactive) | 39.7 µM (inactive) | 58.5 µM (inactive) |  | > 100 µM (inactive) | 66.1 µM (inactive) | 20.9 µM (inactive) | 35.7 µM (inactive) | 44.2 µM (inactive) | 43.8 µM (inactive) | 88.7 µM (inactive) |  | 17.5 µM (inactive) |
| CC(=O)OCC1OC(n2c(C)c(/N=N/c3ccc(C)cc3)c(C)c(C#N)c2=S)C(OC(C)=O)C(OC(C)=O)C1OC(C)=O (centres undefined) | 0.895 µM (active) |  | 48.6 µM (inactive) | > 100 µM (inactive) | > 100 µM (inactive) | > 100 µM (inactive) | > 100 µM (inactive) | 41.4 µM (inactive) | 43.2 µM (inactive) | > 100 µM (inactive) | > 100 µM (inactive) | > 100 µM (inactive) | > 100 µM (inactive) | > 100 µM (inactive) | > 100 µM (inactive) | > 100 µM (inactive) | 27.4 µM (inactive) | > 100 µM (inactive) | 79.3 µM (inactive) | > 100 µM (inactive) |
| O=S(=O)(c1ccc(Br)cc1)N1CCN(S(=O)(=O)c2ccc(Br)cc2)CC1 | > 100 µM (inactive) | > 100 µM (inactive) | > 100 µM (inactive) | > 100 µM (inactive) | > 100 µM (inactive) | > 100 µM (inactive) | > 100 µM (inactive) | > 100 µM (inactive) | > 100 µM (inactive) | 0.0703 µM (active) | > 100 µM (inactive) | > 100 µM (inactive) | > 100 µM (inactive) |  | > 100 µM (inactive) | > 100 µM (inactive) | > 100 µM (inactive) |  | > 100 µM (inactive) | > 100 µM (inactive) |
| C/C(=N\Nc1cc(CN2CCCC2)c(-c2ccc(Cl)cc2)nn1)C(=O)O | > 100 µM (inactive) | > 100 µM (inactive) | > 100 µM (inactive) | > 100 µM (inactive) | > 100 µM (inactive) | > 100 µM (inactive) | > 100 µM (inactive) | > 100 µM (inactive) | > 100 µM (inactive) | > 100 µM (inactive) | > 100 µM (inactive) | > 100 µM (inactive) | > 100 µM (inactive) | > 100 µM (inactive) | > 100 µM (inactive) | > 100 µM (inactive) | > 100 µM (inactive) |  | > 100 µM (inactive) | > 100 µM (inactive) |
| Cc1ccccc1C(O)(c1nccn1C)c1nccn1C | > 100 µM (inactive) | > 100 µM (inactive) | > 100 µM (inactive) | > 100 µM (inactive) | > 100 µM (inactive) | > 100 µM (inactive) | > 100 µM (inactive) | > 100 µM (inactive) | > 100 µM (inactive) | > 100 µM (inactive) | > 100 µM (inactive) |  | > 100 µM (inactive) | > 100 µM (inactive) | > 100 µM (inactive) |  | > 100 µM (inactive) | > 100 µM (inactive) | > 100 µM (inactive) | > 100 µM (inactive) |
